From patent publication US4950677A, “Benzimidazole derivative compounds and method of making” (Hoffmann-La Roche Inc., priority 1987, dated 1990)
Like-named read-outs stand apart in the source and are kept apart here.

Legend:
[1] = tested on: indomethacin-induced lesions of the stomach; test: anti-ulcer activity (protection from indomethacin-induced stomach lesions); assay type: in vivo; settings: Rattus norvegicus, po, male rats, given 1 hour before and 2 hours after 20 mg/kg indomethacin p.o.; dosage protecting 50% of animals from lesions
Method: The experimental procedure described hereinafter was used to determine the anti-ulcer activity:
A number of groups of 8 male rats each with a body weight of 130-150 g are used for each dosage of a test substance. Prior to the beginning of the experiment the animals receive no food for 24 hours, but receive water ad libitum. Various dosages of the substances to be tested (suspended in 0.5% tragacanth) or the vehicle alone (controls) are administered twice perorally, namely. 1 hour before and 2 hours after the peroral administration 20 mg/kg of indomethacin. In the control animals, this dosage of indomethacin leads to lesions of the stomach within 5 hours. The animals are killed 6 hours after the first administration of the substance under investigation (or of the vehicle alone). The rats which remain protected from the occurrence of macroscopically visible lesions to the mucous membrane of the stomach are counted. The ED50 is that dosage of a test substance at which 50% of the animals are protected from the occurence of such lesions.
(§1) In the following Table there are given for a series of representative compounds of formula I the results of the testing with respect to their anti-ulcer activity and to their gastric secretion inhibiting activity. Moreover, this Table contains data concerning the acute toxicity (LD50 in the case of single oral administration to mice).

[2] = tested on: gastric acid production caused by 4-methylhistamine; test: gastric acid secretion-inhibiting activity (4-methylhistamine-stimulated, Heidenhain pouch); assay type: in vivo; settings: Canis lupus familiaris, po; p.o. (dry powder in gelatin capsules), conscious beagle hounds, i.v. infusion of 4-methylhistamine; 50% inhibition vs controls
Method: The experimental procedure described hereinafter was used to determine the gastric acid secretion-inhibiting activity:
A part of the stomach fundus of female and male beagle hounds is separated from the remainder of the stomach in the form of a pouch of the Heidenhain type by a modification of the method described in Rudick et al., J. Surgical Research 7, 383-398 (1967). In the pouch there is fitted a steel cannula which is conducted externally through the abdominal wall. Before each experiment the animals receive no food for 18 hours, but receive water ad libitum. They are conscious and standing during the experiment and their gastric acid secretion is stimulated by the intravenous infusion of 4-methylhistamine, a selective […] of the histamine H2 -receptors. The gastric acid production is determined in 15 minute fractions of the stomach pouch juice. As soon as the gastric acid production has a constant value, the substances to be tested are administered orally as a dry powder filled into gelatin capsules. The ED50 is that dosage of a test substance which brings about a 50% inhibition of the gastric acid production caused by 4-methylhistamine in the treated animals in comparison to the controls.
as §1

[3] = acute toxicity (single oral administration); settings: mouse, in vivo, read-out: Toxicity LD 50
Text: as §1

[4] = p.o., single oral administration to mice

For CCOC(C)(C)CSCc1c(C)c(OC)cc[n+]1-c1nc2ccc(C(F)(F)F)cc2[nH]1.[Cl-] [I, 2-[[(2-Ethoxy-2-methylpropyl)thio]methyl]-4-methoxy-3-methyl-1-[5-(trifluoromethyl)-2-benzimidazolyl]pyridinium chloride], the ED50 [1] was 4.1 mg/kg, the ED50 [2] was 3.8 mg/kg and the LD50 [3, 4] was 2500 to 5000 mg/kg.
Work on COc1cc[n+](-c2nc3cc(C(F)(F)F)ccc3[n-]2)c(CSCC(C)(C)OC(C)=O)c1C [G, Intramolecularly deprotonized 2-[[(2-acetoxy-2-methylpropyl)thio]methyl]-4-methoxy-3-methyl-1-[5-(trifluoromethyl)-2-benzimidazolyl]pyridinium cation] yielded an ED50 [1] of 2.8 mg/kg, an ED50 [2] of 1.5 mg/kg and an LD50 ([3]; po) of 2500 to 5000 mg/kg.
CCOC(C)(C)CSCc1c(C)c(OC)cc[n+]1-c1nc2ccc(C(F)(F)F)cc2[nH]1.CS(=O)(=O)[O-] [H, 2-[[(2-Ethoxy-2-methylpropyl)thio]methyl]-4-methoxy-3-methyl-1-[5-(trifluoromethyl)-2-benzimidazolyl]pyridinium methanesulfonate] gave an ED50 [1] of 3.2 mg/kg and an ED50 [2] of 4.3 mg/kg.
With COc1cc[n+](-c2nc3cc(C(F)(F)F)ccc3[n-]2)c(CSCC(C)(C)OCCO)c1C [B, Intramolecularly deprotonized 2-[[[2-(2-hydroxyethoxy)-2-methylpropyl]thio]methyl]-4-methoxy-3-methyl-1-[5-(trifluoromethyl)-2-benzimidazolyl]pyridinium cation] the ED50 [1] was 6.1 mg/kg, the ED50 [2] was 3.9 mg/kg and the LD50 ([3]; po) was 2500 to 5000 mg/kg.
COc1cc[n+](-c2nc3ccc(C(F)(F)F)cc3[nH]2)c(CSCC(C)(C)OC(C)=O)c1C.[Cl-] [F, 2-[[(2-Acetoxy-2-methylpropyl)thio]methyl]-4-methoxy-3-methyl-1-[5-(trifluoromethyl)-2-benzimidazolyl]pyridinium chloride] gave an ED50 [1] of 1.9 mg/kg, an ED50 [2] of 1.8 mg/kg and an LD50 [3, 4] of 1250 to 2500 mg/kg.
COCCOC(C)(C)CSCc1c(C)c(OC)cc[n+]1-c1nc2ccc(C(F)(F)F)cc2[nH]1.CS(=O)(=O)[O-] [C, 4-Methoxy-2-[[[2-(2-methoxyethoxy)-2-methylpropyl}thio]methyl]-3-methyl-1-[5-(trifluoromethyl)-2-benzimidazolyl]pyridinium methanesulfonate] gave an ED50 [1] of 6 mg/kg, an ED50 [2] of 5.5 mg/kg and an LD50 [3, 4] of 1000 to 2000 mg/kg.
Molecule COc1cc[n+](-c2nc3ccc(C(F)(F)F)cc3[nH]2)c(CSCC(C)(C)OCCO)c1C.CS(=O)(=O)[O-] [A, 2-[[[2-(2-Hydroxyethoxy)-2-methylpropyl]thio]-methyl]-4-methoxy-3-methyl-1-[5-(trifluoromethyl)-2-benzimidazolyl]pyridinium methanesulfonate] has an ED50 [1] of 4.4 mg/kg, an ED50 [2] of 4.9 mg/kg and an LD50 [3, 4] of 2500 to 5000 mg/kg.
Work on COc1cc[n+](-c2nc3ccc(C(F)(F)F)cc3[nH]2)c(CSCC(C)(C)OC(C)=O)c1C.CS(=O)(=O)[O-] [E, 2-[[(2-Acetoxy-2-methylpropyl)thio]methyl]-4-methoxy-3-methyl-1-[5-(trifluoromethyl)-2-benzimidazolyl]pyridinium methanesulfonate] yielded an ED50 [1] of 3.2 mg/kg, an ED50 [2] of 3 mg/kg and an LD50 [3, 4] of 2500 to 5000 mg/kg.
COCCOC(C)(C)CSCc1c(C)c(OC)cc[n+]1-c1nc2cc(C(F)(F)F)ccc2[n-]1 [D, Intramolecularly deprotonized 4-methoxy-2-[[[2-(2-methoxyethoxy)-2-methylpropyl]thio]methyl]-3-methyl-1-[5-(trifluoromethyl)-2-benzimidazolyl]pyridinium cation] showed an ED50 [1] of 7 mg/kg, an ED50 [2] of 4.8 mg/kg and an LD50 ([3]; po) of 2500 to 5000 mg/kg.
For CCOC(C)(C)CSCc1c(C)c(OC)cc[n+]1-c1nc2cc(C(F)(F)F)ccc2[n-]1 [J, Intramolecularly deprotonized 2-[[(2-ethoxy-2-methylpropyl)thio]methyl]-4-methoxy-3-methyl-1-[5-(trifluoromethyl)-2-benzimidazolyl]pyridinium cation], the ED50 [1] was 4.6 mg/kg, the ED50 [2] was 3.7 mg/kg and the LD50 ([3]; po) was over 5000 mg/kg.
